Source: patent publication US20130072430A1, “METHODS FOR TREATMENT OR PROPHYLAXIS OF KIDNEY OR LIVER DYSFUNCTION” (NPS PHARMACEUTICALS, INC., priority 2010, published 2013)

Test system: Human patients with short bowel syndrome
Test: Example 1: kidney diagnostic biomarkers (urea nitrogen, creatinine, GFR) in short bowel syndrome patients, every four weeks for 24 weeks
Assay type: in vivo
Method: Human patients with short bowel syndrome were divided into three groups: a control group (16 total individuals) to receive placebo, an experimental group (35 total individuals) to receive teduglutide at 0.05 mg/kg/day throughout the study, and an experimental group (32 total individuals) to receive teduglutide at 0.1 mg/kg/day throughout the study. Patients were treated by subcutaneous injection of placebo or the appropriate dose of teduglutide. As individuals with short bowel syndrome are likely to experience associated liver and kidney disease, known biomarkers of liver and kidney function were monitored every four weeks, for 24 weeks. The liver biomarkers tested included total bilirubin, ALT and AST and ALP. The kidney biomarkers tested included urea nitrogen, creatinine and GFR. Before administration of placebo or teduglutide, diagnostic biomarker levels were tested to establish a baseline for each individual.
To visualize the effect of GLP-2 on the levels of the diagnostic biomarkers, the average change from baseline was calculated for the placebo and teduglutide treated groups for each visit after a baseline was established. The average change from baseline of each group is depicted in FIGS. […]. The numerical figures for each diaanostic biomarker at each time point are depicted in Table 1.
The raw data for this sorting is reproduced in Table 2 below.

[1] = Week 12, range >5%, teduglutide 0.1 mg/kg/day
[2] = Week 12, range −5%<= and <=5%, teduglutide 0.05 mg/kg/day
[3] = Week 12, range −5%<= and <=5%, teduglutide 0.1 mg/kg/day
[4] = Week 16, range <−5%, teduglutide 0.05 mg/kg/day
[5] = Week 16, range <−5%, teduglutide 0.1 mg/kg/day
[6] = Week 16, range >5%, teduglutide 0.05 mg/kg/day
[7] = Week 16, range >5%, teduglutide 0.1 mg/kg/day
[8] = Week 16, range −5%<= and <=5%, teduglutide 0.05 mg/kg/day
[9] = Week 16, range −5%<= and <=5%, teduglutide 0.1 mg/kg/day
[10] = Week 20, range <−5%, teduglutide 0.05 mg/kg/day
[11] = Week 20, range <−5%, teduglutide 0.1 mg/kg/day
[12] = Week 20, range >5%, teduglutide 0.05 mg/kg/day
[13] = Week 20, range >5%, teduglutide 0.1 mg/kg/day
[14] = Week 20, range −5%<= and <=5%, teduglutide 0.05 mg/kg/day
[15] = Week 20, range −5%<= and <=5%, teduglutide 0.1 mg/kg/day
[16] = Week 24, range <−5%, teduglutide 0.05 mg/kg/day
[17] = Week 24, range <−5%, teduglutide 0.1 mg/kg/day
[18] = Week 24, range >5%, teduglutide 0.05 mg/kg/day
[19] = Week 24, range >5%, teduglutide 0.1 mg/kg/day
[20] = Week 24, range −5%<= and <=5%, teduglutide 0.05 mg/kg/day
[21] = Week 24, range −5%<= and <=5%, teduglutide 0.1 mg/kg/day

CC[C@H](C)[C@H](NC(=O)[C@H](Cc1ccccc1)NC(=O)[C@H](CC(=O)O)NC(=O)[C@H](CCCNC(=N)N)NC(=O)[C@H](C)NC(=O)[C@H](C)NC(=O)[C@H](CC(C)C)NC(=O)[C@H](CC(N)=O)NC(=O)[C@H](CC(=O)O)NC(=O)[C@H](CC(C)C)NC(=O)[C@@H](NC(=O)[C@@H](NC(=O)[C@H](CC(N)=O)NC(=O)[C@H](CCSC)NC(=O)[C@H](CCC(=O)O)NC(=O)[C@H](CC(=O)O)NC(=O)[C@H](CO)NC(=O)[C@H](Cc1ccccc1)NC(=O)[C@H](CO)NC(=O)CNC(=O)[C@H](CC(=O)O)NC(=O)CNC(=O)[C@@H](N)Cc1c[nH]cn1)[C@@H](C)O)[C@@H](C)CC)C(=O)N[C@@H](CC(N)=O)C(=O)N[C@@H](Cc1c[nH]c2ccccc12)C(=O)N[C@@H](CC(C)C)C(=O)N[C@H](C(=O)N[C@@H](CCC(N)=O)C(=O)N[C@H](C(=O)N[C@@H](CCCCN)C(=O)N[C@H](C(=O)N[C@H](C(=O)N[C@@H](CC(=O)O)C(=O)O)[C@@H](C)O)[C@@H](C)CC)[C@@H](C)O)[C@@H](C)CC [teduglutide]
CREATININE (RATE BLANKED) change from baseline: patients in range, n(%) [1]: 17(53.1%) | GFR change from baseline: patients in range, n(%) [1]: 9(28.1%) | UREA NITROGEN change from baseline: patients in range, n(%) [1]: 14(43.8%) | CREATININE (RATE BLANKED) change from baseline: patients in range, n(%) [2]: 4(11.4%) | GFR change from baseline: patients in range, n(%) [2]: 5(14.3%) | UREA NITROGEN change from baseline: patients in range, n(%) [2]: 4(11.4%) | CREATININE (RATE BLANKED) change from baseline: patients in range, n(%) [3]: 4(12.5%) | GFR change from baseline: patients in range, n(%) [3]: 10(31.3%) | UREA NITROGEN change from baseline: patients in range, n(%) [3]: 3(9.4%) | CREATININE (RATE BLANKED) change from baseline: patients in range, n(%) [4]: 8(22.9%) | GFR change from baseline: patients in range, n(%) [4]: 7(20.0%) | UREA NITROGEN change from baseline: patients in range, n(%) [4]: 12(34.3%) | CREATININE (RATE BLANKED) change from baseline: patients in range, n(%) [5]: 10(31.3%) | GFR change from baseline: patients in range, n(%) [5]: 12(37.5%) | UREA NITROGEN change from baseline: patients in range, n(%) [5]: 9(28.1%) | CREATININE (RATE BLANKED) change from baseline: patients in range, n(%) [6]: 8(22.9%) | GFR change from baseline: patients in range, n(%) [6]: 11(31.4%) | UREA NITROGEN change from baseline: patients in range, n(%) [6]: 10(28.6%) | CREATININE (RATE BLANKED) change from baseline: patients in range, n(%) [7]: 12(37.5%) | GFR change from baseline: patients in range, n(%) [7]: 12(37.5%) | UREA NITROGEN change from baseline: patients in range, n(%) [7]: 9(28.1%) | CREATININE (RATE BLANKED) change from baseline: patients in range, n(%) [8]: 12(34.3%) | GFR change from baseline: patients in range, n(%) [8]: 10(28.6%) | UREA NITROGEN change from baseline: patients in range, n(%) [8]: 6(17.1%) | CREATININE (RATE BLANKED) change from baseline: patients in range, n(%) [9]: 8(25.0%) | GFR change from baseline: patients in range, n(%) [9]: 6(18.8%) | UREA NITROGEN change from baseline: patients in range, n(%) [9]: 12(37.5%) | CREATININE (RATE BLANKED) change from baseline: patients in range, n(%) [10]: 9(25.7%) | GFR change from baseline: patients in range, n(%) [10]: 10(28.6%) | UREA NITROGEN change from baseline: patients in range, n(%) [10]: 13(37.1%) | CREATININE (RATE BLANKED) change from baseline: patients in range, n(%) [11]: 7(21.9%) | GFR change from baseline: patients in range, n(%) [11]: 11(34.4%) | UREA NITROGEN change from baseline: patients in range, n(%) [11]: 12(37.5%) | CREATININE (RATE BLANKED) change from baseline: patients in range, n(%) [12]: 10(28.6%) | GFR change from baseline: patients in range, n(%) [12]: 10(28.6%) | UREA NITROGEN change from baseline: patients in range, n(%) [12]: 7(20.0%) | CREATININE (RATE BLANKED) change from baseline: patients in range, n(%) [13]: 13(40.6%) | GFR change from baseline: patients in range, n(%) [13]: 8(25.0%) | UREA NITROGEN change from baseline: patients in range, n(%) [13]: 11(34.4%) | CREATININE (RATE BLANKED) change from baseline: patients in range, n(%) [14]: 8(22.9%) | GFR change from baseline: patients in range, n(%) [14]: 7(20.0%) | UREA NITROGEN change from baseline: patients in range, n(%) [14]: 7(20.0%) | CREATININE (RATE BLANKED) change from baseline: patients in range, n(%) [15]: 9(28.1%) | GFR change from baseline: patients in range, n(%) [15]: 10(31.3%) | UREA NITROGEN change from baseline: patients in range, n(%) [15]: 6(18.8%) | CREATININE (RATE BLANKED) change from baseline: patients in range, n(%) [16]: 8(22.9%) | GFR change from baseline: patients in range, n(%) [16]: 8(22.9%) | CREATININE (RATE BLANKED) change from baseline: patients in range, n(%) [17]: 11(34.4%) | GFR change from baseline: patients in range, n(%) [17]: 6(18.8%) | UREA NITROGEN change from baseline: patients in range, n(%) [17]: 14(43.8%) | CREATININE (RATE BLANKED) change from baseline: patients in range, n(%) [18]: 9(25.7%) | GFR change from baseline: patients in range, n(%) [18]: 10(28.6%) | UREA NITROGEN change from baseline: patients in range, n(%) [18]: 7(20.0%) | CREATININE (RATE BLANKED) change from baseline: patients in range, n(%) [19]: 9(28.1%) | GFR change from baseline: patients in range, n(%) [19]: 14(43.8%) | UREA NITROGEN change from baseline: patients in range, n(%) [19]: 13(40.6%) | CREATININE (RATE BLANKED) change from baseline: patients in range, n(%) [20]: 9(25.7%) | GFR change from baseline: patients in range, n(%) [20]: 8(22.9%) | UREA NITROGEN change from baseline: patients in range, n(%) [20]: 2(5.7%) | CREATININE (RATE BLANKED) change from baseline: patients in range, n(%) [21]: 9(28.1%) | GFR change from baseline: patients in range, n(%) [21]: 9(28.1%) | UREA NITROGEN change from baseline: patients in range, n(%) [21]: 2(6.3%) | percent of the group experiencing a decrease in GFR greater than 5% versus placebo (both groups receiving teduglutide): always less than the percent of the group receiving placebo | creatinine levels, average change versus baseline (FIG. 9) (groups receiving teduglutide): remained stable or decreased slightly
